The results in this text go back to patent US7091018B2, “Enzyme gene and its expression product” (Otsuka Pharmaceutical Co., Ltd., priority 2000, dated 2006).

For one experiment, the target named is T1, GFAT1L (Homo sapiens, UniProt Q06210).
T1 construct: made in house; host or cells: E. coli BL21-CodonPlus(DE3)RIL, pET23b vector; ultracentrifuged lysate supernatant, not purified
The experiment is described as follows: GFAT activity assay (spectrophotometric, GDH/APAD coupled): Km values and inhibition pattern of UDP-G1cNAc, GFAT1L. Format: biochemical. The procedure: (§1) GFAT activity was determined in accordance with Marshall et al. by means of spectrophotometry using a microplate (96 wells) (Journal of Biological Chemistry, vol. 266 No. 8, 4706–4712 (1991)) in the following manner. Glutamate produced by GFAT was allowed-to react with glutamate dehydrogenase (GDH), during which a reductive reaction of coenzyme APAD into APADH proceeded simultaneously. Changes in absorbance that accompany the reduction reaction of APAD to APADH are considered to represent GFAT activity.
(§2) Briefly, an appropriately diluted solution of a lyzate of GFAT1L- or GFAT1S-introduced E. coli (50 μl) was added to a substrate solution (200 μl) containing a sodium phosphate buffer (pH=7.5; 40 mM), potassium chloride (50 mM), EDTA (1.25 mM), APAD (0.3 mM), GDH (6 U/ml), glutamine (0–6 mM), and fructose-6-phosphate (F-6-P: 0–6 mM), and the mixture was allowed to react at 37° C. for 60 minutes. The absorbance change at 365 nm associated with the reaction was measured by use of a microplate reader.
(§3) In order to study the difference in terms of enzymatic behavior between GFAT1L and GFAT1S, Km values were determined using, as substrates, glutamine and F-6-P. Km values were calculated on the basis of :S/v−S plotting and v−v/S plotting, which were made with regard to the enzyme substrate concentration (S) and activity of the enzyme (reaction rate (v)). […]

In a further experiment the target is T2, GFAT1S (Homo sapiens, UniProt Q06210).
T2 construct: made in house; host or cells: E. coli BL21-CodonPlus(DE3)RIL, pET23b vector; ultracentrifuged lysate supernatant, not purified
T2 sequence (Q06210 1-681 isoform Q06210-2): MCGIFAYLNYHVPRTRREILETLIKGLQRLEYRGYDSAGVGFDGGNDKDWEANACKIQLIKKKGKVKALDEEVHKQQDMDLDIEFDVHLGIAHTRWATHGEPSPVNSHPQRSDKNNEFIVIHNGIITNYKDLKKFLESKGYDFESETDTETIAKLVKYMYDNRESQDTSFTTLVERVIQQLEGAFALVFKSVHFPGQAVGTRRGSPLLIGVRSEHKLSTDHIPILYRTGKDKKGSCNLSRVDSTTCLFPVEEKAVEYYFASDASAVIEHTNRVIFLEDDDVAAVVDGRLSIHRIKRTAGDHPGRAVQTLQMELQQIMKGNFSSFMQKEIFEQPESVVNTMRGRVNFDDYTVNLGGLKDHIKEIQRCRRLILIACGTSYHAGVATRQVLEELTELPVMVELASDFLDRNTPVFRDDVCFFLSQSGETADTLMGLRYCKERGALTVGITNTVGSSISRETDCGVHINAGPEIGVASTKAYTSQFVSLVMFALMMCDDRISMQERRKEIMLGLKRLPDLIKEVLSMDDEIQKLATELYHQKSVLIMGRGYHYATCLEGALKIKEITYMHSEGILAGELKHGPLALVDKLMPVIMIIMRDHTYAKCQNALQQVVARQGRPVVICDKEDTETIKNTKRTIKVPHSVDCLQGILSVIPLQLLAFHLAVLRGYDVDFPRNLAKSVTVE
The experiment is described as follows: GFAT activity assay (spectrophotometric, GDH/APAD coupled): Km values and inhibition pattern of UDP-G1cNAc, GFAT1S. Format: biochemical. The protocol: as §1, §2, §3

[1] abbreviates: F-6-P as substrate, UDP-G1cNAc 30, 100 μM.
Setting [2] is: glutamine as substrate, UDP-G1cNAc 10, 30, 100 μM.

T1 sequence (Q06210 whole entry): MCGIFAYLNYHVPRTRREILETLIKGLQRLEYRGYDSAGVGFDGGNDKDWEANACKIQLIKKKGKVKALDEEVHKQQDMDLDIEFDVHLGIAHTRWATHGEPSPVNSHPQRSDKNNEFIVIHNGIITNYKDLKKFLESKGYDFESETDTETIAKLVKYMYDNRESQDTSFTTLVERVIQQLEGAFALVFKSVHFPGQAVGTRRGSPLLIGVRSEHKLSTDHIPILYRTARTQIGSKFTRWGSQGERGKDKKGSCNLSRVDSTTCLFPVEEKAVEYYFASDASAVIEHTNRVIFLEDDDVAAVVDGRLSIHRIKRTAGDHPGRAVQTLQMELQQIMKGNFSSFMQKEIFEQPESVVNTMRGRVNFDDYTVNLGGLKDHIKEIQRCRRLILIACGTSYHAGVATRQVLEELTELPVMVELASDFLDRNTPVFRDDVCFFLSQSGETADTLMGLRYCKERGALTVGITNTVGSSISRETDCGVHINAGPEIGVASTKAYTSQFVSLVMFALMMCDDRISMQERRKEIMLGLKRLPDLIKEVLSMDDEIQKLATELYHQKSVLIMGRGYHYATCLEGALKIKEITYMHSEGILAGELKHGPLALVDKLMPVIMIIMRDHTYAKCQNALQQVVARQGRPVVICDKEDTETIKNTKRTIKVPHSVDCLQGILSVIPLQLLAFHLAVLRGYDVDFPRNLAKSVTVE

Regarding `CC(=O)N[C@H]1[C@@H](OP(=O)(O)OP(=O)(O)OC[C@H]2O[C@@H](n3ccc(=O)[nH]c3=O)[C@H](O)[C@@H]2O)O[C@H](CO)[C@@H](O)[C@@H]1O` [UDP-G1cNAc, UDP-N-acetylglucosamine], the entries for the “Inhibition pattern of UDP-G1cNAc against GFAT activity, F-6-P” value on GFAT1L (setting [1]) and on GFAT1S (setting [1]) were “mixed inhibition” and “competitive inhibition”, respectively. Besides, the “Inhibition pattern of UDP-G1cNAc against GFAT activity, Glutamine” value at GFAT1L (setting [2]) is recorded as “mixed inhibition”; at GFAT1S (setting [2]), “un-competitive inhibition”.
